# Test results from patent US20140206678A1, “INHIBITORS OF MTOR KINASE AS ANTI -VIRAL AGENT” (KADMON CORPORATION, LLC, priority 2011, published 2014).
# Entries after “also recorded” stand apart in the source; their conditions may differ.
# Assays:
# [1] = target: mTOR (Homo sapiens, UniProt P42345); conditions: read-out: IC50 (selective mTOR inhibitors); cited from earlier work
# [2] = test system: PI3Ks; conditions: cited from earlier work
# [3] = test system: HCMV; assay: HCMV yield in MRC5 fibroblasts at 96 hours post-infection (mTOR inhibitors); type: cell-based, human cytomegalovirus; conditions: 0.5 pfu/cell, up to 5 μM
# [4] = test system: HCMV; assay: HCMV multistep growth in serum-starved human fibroblasts, cell-free virus by TCID50; type: cell-based, human cytomegalovirus; conditions: day 10; rapamycin 20 nM, Torin1 250 nM; 0.05 PFU/cell
# [5] = test system: MCMV; assay: MCMV replication in mouse embryo fibroblasts, TCID50; type: cell-based, murine cytomegalovirus; conditions: wild-type MEFs; rapamycin 20 nM, Torin1 250 nM; 0.05 PFU/cell
# [6] = test system: panel of 140 protein kinases; conditions: read-out: IC50 against panel of 140 protein kinases; cited from earlier work
# [7] = test system: HCMV strain AD169; assay: HCMV AD169 replication in human fibroblasts with 4-PBA alone or with mTOR inhibitors, TCID50; type: cell-based, human cytomegalovirus
# [8] = test system: confluent human fibroblasts; assay: Trypan blue exclusion viability of confluent human fibroblasts (4-PBA); type: cell-based; conditions: highest dose tested; eight days
# Method: FIG. 11. 4-PBA is not toxic to uninfected or infected confluent human fibroblasts. (A) Fibroblasts were maintained in medium containing the indicated concentrations of 4-PBA for 8 days. The medium was replaced every other day throughout the time course. At the end of the treatment period, cell viability was measured by the trypan blue exclusion assay. Date points represent the mean of duplicate wells. (B) Fibroblasts were infected with HCMV at a multiplicity of 0.1 pfu/cell. Cells were fed every other day with fresh medium containing the indicated concentration of 4-PBA. At eight days post infection, cells were washed once with media, and then media lacking drug was added. Eight days later (16 days post infection) cell free virus in the supernatant was quantitated by the TCID50 method. Date points represent the mean of duplicate wells.
# Two experiments were performed to rule out the possibility that 4-PBA is simply toxic to the cells and inhibits HCMV indirectly by reducing cell viability (FIG. 11). In the first experiment (FIG. 11A) an assay for cell viability was performed on confluent human fibroblasts treated for eight days with different concentrations of the drug. The highest dose of the drug tested had no effect on cellular viability in the trypan blue exclusion assay. […] Then the drug was removed and the yield of virus was determined 8 days later.
smiles,measurement,setting,value
CNC(=O)Nc1ccc(-c2nc(N3C[C@H]4CC[C@@H](C3)O4)c3cnn(C4CCC5(CC4)OCCO5)c3n2)cc1 [WYE-125132],IC50,[1],0.19 nM
same,fold selective versus PI3Ks (PI3K),[2],"> 5,000 fold"
Cn1c(=O)n(-c2ccc(C(C)(C)C#N)cc2)c2c3cc(-c4cnc5ccccc5c4)ccc3ncc21 [BEZ235],HCMV virus production (yield as percentage of untreated cells),[3],inhibit virus production
COc1cc(-c2cn(-c3nc(N4CCOCC4)nc(N4CCOCC4)n3)cn2)cc(OC)c1O [KU-BMCL-200908069-5],fold selective versus PI3Ks (PI3K),[2],> 500 fold
CO[C@H]1C[C@@H]2CC[C@@H](C)[C@@](O)(O2)C(=O)C(=O)N2CCCC[C@H]2C(=O)O[C@H]([C@H](C)C[C@@H]2CC[C@@H](O)[C@H](OC)C2)CC(=O)[C@H](C)/C=C(\C)[C@@H](O)[C@@H](OC)C(=O)[C@H](C)C[C@H](C)/C=C/C=C/C=C/1C [rapamycin],reduction of HCMV yield,[4],~8 fold
same,MCMV replication,[5],no inhibitory effect
CN1CCN(C(=O)c2ccc(NC(=O)Nc3ccc(-c4nc(N5CCOCC5)cc(N5C[C@H]6CC[C@@H](C5)O6)n4)cc3)cc2)CC1 [Wyeth—Compound 27],HCMV virus production (yield as percentage of untreated cells),[3],inhibit virus production
Cc1c(C(=O)N2CCOc3ccc(-c4ccc(N)nc4)cc3C2)ccc(S(C)(=O)=O)c1F [XL388],IC50,[6],> 3000 nM
"O=C([O-])CCCc1ccccc1.[Na+] [4-PBA, sodium 4-phenylbutyrate]",virus yield 8 days after drug removal,"[7]; all doses tested, 8-day treatment, 16 days post infection",recovered and produced a normal yield
same,HCMV virus replication,"[7]; dose-dependent, day 8 post infection, 0.1 pfu/cell",effectively inhibited; also recorded: inhibited virus production
same,"cellular viability, trypan blue exclusion assay",[8],no effect
CC(C)n1nc(-c2ccc3oc(N)nc3c2)c2c(N)ncnc21 [INK128],HCMV virus production (yield as percentage of untreated cells),[3],inhibit virus production
O=C(Nc1ccc(-c2nc(N3CC4CCC(C3)O4)c3sccc3n2)cc1)NC1CC1 [Wyeth-BMCL-200910075-9b],IC50,[1],0.7 nM
same,fold selective versus PI3Ks (PI3K),[2],"> 1,000 fold"
